Measured values: patent US20210322386A1, “METHODS OF DELAYING AND REVERSING ALZHEIMER'S DISEASE PROGRESSION” (Loma Linda University, priority 2018, published 2021)
Entries after “also recorded” stand apart in the source; their conditions may differ. Read-outs that look alike come from different tables or passages of the source.

Columns and labels:
CYP27A1 enzyme = molecular target: T1, CYP27A1 enzyme (Homo sapiens, UniProt Q02318); conditions: from Mast et al., Mol. Pharmacol., 2015, cited from earlier work
T1 sequence (Q02318 34-531): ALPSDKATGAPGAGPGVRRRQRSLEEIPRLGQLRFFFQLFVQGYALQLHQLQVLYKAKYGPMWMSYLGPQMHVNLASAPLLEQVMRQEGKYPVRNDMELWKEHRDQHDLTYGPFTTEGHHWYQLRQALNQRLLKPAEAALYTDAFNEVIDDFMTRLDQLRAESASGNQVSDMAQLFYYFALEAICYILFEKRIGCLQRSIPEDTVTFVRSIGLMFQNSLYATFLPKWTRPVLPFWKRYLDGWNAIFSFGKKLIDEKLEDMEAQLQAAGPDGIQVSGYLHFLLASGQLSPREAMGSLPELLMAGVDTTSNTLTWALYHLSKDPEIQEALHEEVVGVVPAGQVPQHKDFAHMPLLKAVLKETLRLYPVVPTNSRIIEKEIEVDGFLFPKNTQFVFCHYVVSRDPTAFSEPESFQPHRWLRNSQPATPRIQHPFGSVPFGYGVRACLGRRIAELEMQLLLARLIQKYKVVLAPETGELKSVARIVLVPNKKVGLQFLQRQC

12-week old male mice = assay: Pilot study of safety profile of anastrozole in mice (Appearance/Attitude Scores, weight gain, postmortem organs); format: in vivo
Description: A pilot study was carried out to assess the safety profile and cognitive impact of anastrozole in 12-week old male mice. Mice were fed anastrozole or placebo (vehicle alone) for a period of 8 weeks using a hydrogel as the means of administration (n=6 per group). Because of the poor palatability of anastrozole in its available form, it was administered through a hydration gel especially designed for medication delivery (LabGel-ClearH20 catalog # 71-02-1081; Portland, Me.), LabGel consists of purified water, sucralose, fruit and natural flavoring, hydrocolloids, potassium sorbate, sodium benzoate, and phosphoric acid. For each 236 mL dose of LabGel, 45 mg of anastrozole powder, 40 μL of red food coloring, and 1 mL of propylene glycol are thoroughly mixed and the resulting anastrozole is distributed into mouse cages at 3 grams LabGel/mouse/day in a custom--made container easily accessible to the mice. The final concentration of anastrozole in the LabGel is 0.1906 mg/mL and it is kept fresh by replacing it every 48 hours. In the experiment, mice consumed about 2 mL/mouse/day of LabGel equating to about 0.4 mg anastrozole/animal/day, which is consistent with the literature (Overk et al., J Neurosci Methods, 195: 194-9, 2011). Mice were monitored for health decline signs, and given an Appearance Score (Normal skin; skin tent on dorsum; hunched posture; eyes sunken in and severe skin tent; and failure to right self) and an Attitude Score (Normal; decreased activity; lethargy; non-responsiveness; and failure to flee when hand present in cage), as described (Bekkevold et al., J Am Assoc Lab Anim Sci, 52: 233-9, 2013).

[1] = test system: mice fed a high-cholesterol diet; assay: Y-maze test of cognitive function in mice fed a high-cholesterol diet; format: in vivo; conditions: mice on high-cholesterol diet (standard chow containing 0.5% cholesterol), 8 weeks of treatment, about 0.4 mg anastrozole/animal/day in LabGel
Description: A pilot study was carried out to assess the safety profile and cognitive impact of anastrozole in 12-week old male mice. Mice were fed anastrozole or placebo (vehicle alone) for a period of 8 weeks using a hydrogel as the means of administration (n=6 per group). Because of the poor palatability of anastrozole in its available form, it was administered through a hydration gel especially designed for medication delivery (LabGel-ClearH20 catalog # 71-02-1081; Portland, Me.), LabGel consists of purified water, sucralose, fruit and natural flavoring, hydrocolloids, potassium sorbate, sodium benzoate, and phosphoric acid. […] Mice were monitored for health decline signs, and given an Appearance Score (Normal skin; skin tent on dorsum; hunched posture; eyes sunken in and severe skin tent; and failure to right self) and an Attitude Score (Normal; decreased activity; lethargy; non-responsiveness; and failure to flee when hand present in cage), as described (Bekkevold et al., J Am Assoc Lab Anim Sci, 52: 233-9, 2013).
12-week old male mice on either a normal or high-cholesterol diet were tested on the same day with an interval of 2 hours between the training 15 min) and testing (5 min) phases. Data were analyzed by one-way ANOVA and Bonferroni post-hoc test. […]

Structure (SMILES)	inhibition of the CYP27A1 enzyme (CYP27A1 enzyme)	other results
CC[C@@H]([C@H](C)O)n1ncn(-c2ccc(N3CCN(c4ccc(OC[C@@H]5CO[C@@](Cn6cncn6)(c6ccc(F)cc6F)C5)cc4)CC3)cc2)c1=O [posaconazole]	Inhibitors of the CYP27A1 enzyme	
CC(C)(C#N)c1cc(Cn2cncn2)cc(C(C)(C)C#N)c1 [anastrozole]	Inhibitors of the CYP27A1 enzyme	inhibition of the CYP27A1 enzyme (CYP27A1 enzyme; listed as Anastrozole): shown to inhibit the CYP27A1 enzyme; signs of health decline (Appearance Score and Attitude Score) (12-week old male mice; 8 weeks, about 0.4 mg anastrozole/animal/day in LabGel): No signs of health decline; postmortem evaluation of major organs (12-week old male mice; after 8 weeks): no signs of toxicity; weight gain progression vs vehicle group (12-week old male mice; throughout the 8-week study): identical between both groups; cognitive function as measured by Y-maze test [1]: protects against cognitive loss; also recorded: ameliorates the negative effect of a high-cholesterol diet on cognitive function
C[C@@H](c1nc(-c2ccc(C#N)cc2)cs1)[C@](O)(Cn1cncn1)c1ccc(F)cc1F [ravuconazole]	Inhibitors of the CYP27A1 enzyme	
N#Cc1ccc(C2CCCc3cncn32)cc1 (stereo not shown) [fadrozole]	Inhibitors of the CYP27A1 enzyme	
Cc1cccc([C@H](C)c2cnc[nH]2)c1C [dexmedetomidine]	Inhibitors of the CYP27A1 enzyme	
